In patent US11566007B2, “Ras inhibitors” (Revolution Medicines, Inc., priority 2019, dated 2023):
Like-named read-outs stand apart in the source and are kept apart here.

Experiments:
KRAS G12D = KRAS G12D (Homo sapiens (Human), UniProt P01116+P62937, G12D); assay: Ras-Raf (BRAF RBD) disruption / FRET / MOA assay, KRAS G12D; format: biochemical; settings: Ras-Raf disruption/FRET/MOA assay; class symbols; read-out: KRAS G12D FRET data IC50
Method in brief: (§1)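 Compound-driven ternary complex of nucleotide-loaded Ras with cyclophilin A, disrupting BRAF RBD binding. 10-point 3-fold dilution from 30 μM final, 3 h at 25° C, then anti-His Eu-W1024 (10 nM) and anti-GST allophycocyanin (50 nM) for 1.5 h. IC50 from TR-FRET ratio decrease versus DMSO.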

K-Ras G12C = K-Ras G12C (Homo sapiens (Human), UniProt P01116+P62937, G12C); assay: Ras-Raf (BRAF RBD) disruption / FRET / MOA assay, KRAS G12C; format: biochemical; settings: KRAS G12C, Ras-Raf disruption/FRET/MOA assay
K-Ras G12C, sequence (P01116-2 other isoform, or with tags, fused parts or gaps G12C): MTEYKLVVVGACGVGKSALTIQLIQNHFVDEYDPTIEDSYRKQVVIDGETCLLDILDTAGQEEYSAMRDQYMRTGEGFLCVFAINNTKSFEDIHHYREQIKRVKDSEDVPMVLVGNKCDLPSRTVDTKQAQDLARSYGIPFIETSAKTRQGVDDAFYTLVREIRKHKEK
K-Ras G12C, sequence (P62937 whole entry): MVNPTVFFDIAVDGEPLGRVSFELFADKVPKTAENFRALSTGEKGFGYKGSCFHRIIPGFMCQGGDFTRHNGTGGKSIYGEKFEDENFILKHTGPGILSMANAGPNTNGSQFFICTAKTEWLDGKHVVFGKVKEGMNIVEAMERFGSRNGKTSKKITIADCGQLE
Method in brief: as §1

KRAS G12V = KRAS G12V (Homo sapiens (Human), UniProt P01116+P62937, G12V); assay: Ras-Raf (BRAF RBD) disruption / FRET / MOA assay, KRAS G12V; format: biochemical; settings: read-out: IC50* KRAS G12V FRET data
KRAS G12V, sequence (P01116-2 other isoform, or with tags, fused parts or gaps G12V): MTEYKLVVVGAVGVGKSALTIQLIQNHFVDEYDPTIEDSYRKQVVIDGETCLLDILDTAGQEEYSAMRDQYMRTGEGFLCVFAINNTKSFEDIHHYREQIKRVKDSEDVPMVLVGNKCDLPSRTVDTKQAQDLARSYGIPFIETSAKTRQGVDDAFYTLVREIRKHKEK
KRAS G12V, sequence (P62937 whole entry): as the sequence (P62937 whole entry) above
Method in brief: as §1

KRAS G13D = KRAS G13D (Homo sapiens (Human), UniProt P01116+P62937, G13D); assay: Ras-Raf (BRAF RBD) disruption / FRET / MOA assay, KRAS G13D; format: biochemical
KRAS G13D, sequence (P01116-2 other isoform, or with tags, fused parts or gaps G13D): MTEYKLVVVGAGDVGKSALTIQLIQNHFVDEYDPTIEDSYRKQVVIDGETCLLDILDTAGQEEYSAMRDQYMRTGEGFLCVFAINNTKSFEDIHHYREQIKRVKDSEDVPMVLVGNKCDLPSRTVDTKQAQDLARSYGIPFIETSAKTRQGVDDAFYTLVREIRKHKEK
KRAS G13D, sequence (P62937 whole entry): as the sequence (P62937 whole entry) above
Method in brief: as §1

KRAS Q61H = KRAS Q61H (Homo sapiens (Human), UniProt P01116+P62937, Q61H); assay: Ras-Raf (BRAF RBD) disruption / FRET / MOA assay, KRAS Q61H; format: biochemical; settings: class symbols
KRAS Q61H, sequence (P01116-2 other isoform, or with tags, fused parts or gaps Q61H): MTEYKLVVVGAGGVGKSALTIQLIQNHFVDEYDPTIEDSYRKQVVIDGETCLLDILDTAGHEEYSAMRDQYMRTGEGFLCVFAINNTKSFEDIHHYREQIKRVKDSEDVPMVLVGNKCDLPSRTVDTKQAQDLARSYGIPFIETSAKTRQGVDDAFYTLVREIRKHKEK
KRAS Q61H, sequence (P62937 whole entry): as the sequence (P62937 whole entry) above
Method in brief: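 Compounds (30 μM top final, 10-point 3-fold dilutions) incubated 3 h at 25° C with nucleotide-loaded Ras, cyclophilin A and BRAF RBD. Detection with 10 nM anti-His Eu-W1024 and 50 nM anti-GST allophycocyanin over another 1.5 h. Lowered TR-FRET ratio relative to DMSO wells gives IC50.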

KRAS WT = KRAS WT (Homo sapiens (Human), UniProt P01116+P62937); assay: Ras-Raf (BRAF RBD) disruption / FRET / MOA assay, KRAS WT; format: biochemical; settings: read-out: IC50* KRAS WT FRET data
KRAS WT, sequence (P01116-2 other isoform, or with tags, fused parts or gaps): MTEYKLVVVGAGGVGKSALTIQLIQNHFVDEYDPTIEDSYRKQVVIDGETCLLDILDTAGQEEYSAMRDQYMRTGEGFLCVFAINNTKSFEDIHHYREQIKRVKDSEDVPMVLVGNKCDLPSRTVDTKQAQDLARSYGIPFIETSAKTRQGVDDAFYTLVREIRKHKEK
KRAS WT, sequence (P62937 whole entry): as the sequence (P62937 whole entry) above
Method in brief: as §1

NCI-H358 (K-Ras G12C) = assay: CellTiter-Glo cell viability assay, NCI-H358; format: cell-based, human; settings: Homo sapiens, NCI-H358, 120 h, class symbols
Method in brief: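 Luminescent viability readout on day 5 after direct compound addition to plated cells; plates sat ~30 min at room temperature before reading. Values expressed as percent of mean DMSO signal, curves fit with a four-parameter logistic model.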

[1] = read-out: IC50* KRAS G12C FRET data
[2] = read-out: IC50* KRAS G13D FRET data
[3] = Ras-Raf disruption/FRET/MOA assay, read-out: KRAS Q61H FRET data IC50
[4] = NCI-H358, 5-day treatment, read-out: Additional H358 Cell Viability assay data (K-Ras G12C, IC50)

KRAS G12D, sequence (P01116-2 other isoform, or with tags, fused parts or gaps G12D): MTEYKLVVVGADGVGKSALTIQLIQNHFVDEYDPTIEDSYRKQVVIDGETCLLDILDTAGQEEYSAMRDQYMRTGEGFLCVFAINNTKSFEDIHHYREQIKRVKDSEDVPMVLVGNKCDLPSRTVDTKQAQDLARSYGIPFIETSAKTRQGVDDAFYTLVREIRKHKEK
KRAS G12D, sequence (P62937 whole entry): as the sequence (P62937 whole entry) above

| SMILES | IC50 (KRAS G12D) [nM] | IC50 (K-Ras G12C; IC50* KRAS G12C FRET data) [nM] | IC50 (KRAS G12V) [nM] | IC50 (KRAS G13D; IC50* KRAS G13D FRET data) [nM] | IC50 (KRAS Q61H; KRAS Q61H FRET data IC50, Ras-Raf disruption/FRET/MOA assay) [nM] | IC50 (KRAS WT) [nM] | IC50 (NCI-H358 (K-Ras G12C); read-out: Additional H358 Cell Viability assay data (K-Ras G12C, IC50, uM), NCI-H358, 5-day treatment) [µM] | IC50 (K-Ras G12C; [1]) [nM] | IC50 (KRAS G13D; [2]) [nM] | IC50 (KRAS Q61H; [3]) [nM] | IC50 (NCI-H358 (K-Ras G12C); [4]) [µM] |
| --- | --- | --- | --- | --- | --- | --- | --- | --- | --- | --- | --- |
| CCn1c(-c2cccnc2[C@H](C)OC)c2c3cc(ccc31)-c1cccc(c1)C[C@H](NC(=O)[C@H](C(C)C)N1CC[C@@]3(CCN(C(=O)C#C[C@@H]4COCCN4C)C3)C1=O)C(=O)N1CCC[C@H](N1)C(=O)OCC(C)(C)C2 (atropisomer, axis not shown) [Example A549] | > 10000 | < 10 | 1000 to 10000 | 1000 to 10000 | 100 to 1000 | 1000 to 10000 | < 0.01 |  |  |  |  |
| CCn1c(-c2cccnc2[C@H](C)OC)c2c3cc(ccc31)-c1cccc(c1)C[C@H](NC(=O)[C@H](C(C)C)N1CC[C@]3(CCN(C(=O)C#C[C@@]4(N(C)C)CCOC4)C3)C1=O)C(=O)N1CCC[C@H](N1)C(=O)OCC(C)(C)C2 (atropisomer, axis not shown) [Example A560] | 1000 to 10000 |  | 1000 to 10000 |  |  | 1000 to 10000 |  | 10 to 100 | 1000 to 10000 | 100 to 1000 | < 0.01 |
| C=CC(=O)N1C[C@@H]2CN(C(=O)N(C)[C@H](C(=O)N[C@H]3Cc4nc(cs4)-c4ccc5c(c4)c(c(-c4cccnc4[C@H](C)OC)n5CC)CC(C)(C)COC(=O)[C@@H]4CCCN(N4)C3=O)C(C)C)[C@@H]2C1 (atropisomer, axis not shown) [Example A561] | 1000 to 10000 |  | 1000 to 10000 |  |  | 1000 to 10000 |  | 100 to 1000 | 1000 to 10000 | 100 to 1000 | 0.1 to 1 |
| C=CC(=O)N1CCO[C@H]2CN(C(=O)N(C)[C@H](C(=O)N[C@H]3CC4=NN=C(O4)c4ccc5c(c4)c(c(-c4cccnc4[C@H](C)OC)n5CC(F)(F)F)CC(C)(C)COC(=O)[C@@H]4CCCN(N4)C3=O)C(C)C)C[C@H]21 (atropisomer, axis not shown) [Example A576] | > 10000 |  | > 10000 |  |  | 1000 to 10000 |  | 100 to 1000 | > 10000 | 1000 to 10000 | 0.1 to 1 |
| CO[C@@H](C)c1ncccc1-c1c2c3cc(ccc3n1CC(F)(F)F)-c1nc(co1)C[C@H](NC(=O)[C@H](C(C)C)N(C)C(=O)C1(F)CCN(C(=O)C#CC(C)(C)N(C)C)CC1)C(=O)N1CCC[C@H](N1)C(=O)OCC(C)(C)C2 (atropisomer, axis not shown) [Example A578] | 100 to 1000 |  | 100 to 1000 |  |  | 100 to 1000 |  | < 10 | 100 to 1000 | 10 to 100 | < 0.01 |
| CCn1c(-c2cccnc2[C@H](C)OC)c2c3cc(ccc31)-c1cccc(c1)C[C@H](NC(=O)[C@@H](CO[C@H]1CCN(C(=O)C#CC(C)(C)N(C)C)C1)C(C)C)C(=O)N1CCC[C@H](N1)C(=O)OCC(C)(C)C2 (atropisomer, axis not shown) [Example A585] | > 10000 |  | 1000 to 10000 |  |  | 1000 to 10000 |  | 10 to 100 | > 10000 | 1000 to 10000 | < 0.01 |
| CCn1c(-c2cccnc2[C@H](C)OC)c2c3cc(ccc31)C1=CCCN(C1)C[C@H](NC(=O)[C@H](C(C)C)N(C)C(=O)C1(F)CCN(C(=O)C#CC(C)(C)N(C)C)CC1)C(=O)N1CCC[C@H](N1)C(=O)OCC(C)(C)C2 (atropisomer, axis not shown) [Example A591] | 1000 to 10000 |  | 100 to 1000 |  |  | 100 to 1000 |  | < 10 | 100 to 1000 | 100 to 1000 | < 0.01 |
| CCn1c(-c2cccnc2[C@H](C)OC)c2c3cc(ccc31)-c1cccc(c1)C[C@H](NC(=O)[C@@H](COC1CN(C(=O)C#CC(C)(C)N(C)C(C)C)C1)C(C)C)C(=O)N1CCC[C@H](N1)C(=O)OCC(C)(C)C2 (atropisomer, axis not shown) [Example A599] | > 10000 |  | 1000 to 10000 |  |  | > 10000 |  | < 10 | > 10000 | > 10000 | < 0.01 |
| CO[C@@H](C)c1ncccc1-c1c2c3cc(ccc3n1CC(F)(F)F)-c1cccc(c1)CN(NC(=O)[C@@H](COC1CN(C(=O)C#CC(C)(C)N(C)C)C1)C(C)C)C(=O)N1CCC[C@H](N1)C(=O)OCC(C)(C)C2 (atropisomer, axis not shown) [Example A601] | > 10000 |  | 1000 to 10000 |  |  | 1000 to 10000 |  | < 10 | 1000 to 10000 | 1000 to 10000 | < 0.01 |
| CO[C@@H](C)c1ncccc1-c1c2c3cc(ccc3n1CC(F)(F)F)-c1csc(n1)C[C@H](NC(=O)[C@H](C(C)C)N(C)C(=O)N1CCC3(CC1)CN(C(=O)/C=C/CF)C3)C(=O)N1CCC[C@H](N1)C(=O)OCC(C)(C)C2 (atropisomer, axis not shown) [Example A602] | 100 to 1000 |  | 10 to 100 |  |  | 10 to 100 |  | 10 to 100 | 100 to 1000 | 10 to 100 | < 0.01 |
| C=CC(=O)N1CCOC2(CCN(C(=O)N(C)[C@H](C(=O)N[C@H]3Cc4nc(n(C)n4)-c4ccc5c(c4)c(c(-c4cccnc4[C@H](C)OC)n5CC(F)(F)F)CC(C)(C)COC(=O)[C@@H]4CCCN(N4)C3=O)C(C)C)CC2)C1 (atropisomer, axis not shown) [Example A606] | 1000 to 10000 |  | 100 to 1000 |  |  | 100 to 1000 |  | 100 to 1000 | 100 to 1000 | 10 to 100 | 0.1 to 1 |
| C=CC(=O)N1CC2(C1)OCCN2C(=O)N(C)[C@H](C(=O)N[C@H]1Cc2nc(cs2)-c2ccc3c(c2)c(c(-c2cccnc2[C@H](C)OC)n3CC)CC(C)(C)COC(=O)[C@@H]2CCCN(N2)C1=O)C(C)C (atropisomer, axis not shown) [Example A620] | 1000 to 10000 |  | 100 to 1000 |  |  | 100 to 1000 |  | < 10 | 100 to 1000 | 10 to 100 | < 0.01 |
| CCn1c(-c2cccnc2[C@H](C)OC)c2c3cc(ccc31)-c1cccc(n1)C[C@H](NC(=O)[C@H](C(C)C)N(C)C(=O)N1CCC13CN(C(=O)C#CC(C)(C)N(C)C)C3)C(=O)N1CCC[C@H](N1)C(=O)OCC(C)(C)C2 (atropisomer, axis not shown) [Example A623] | 1000 to 10000 |  | 1000 to 10000 |  |  | 1000 to 10000 |  | 100 to 1000 | 1000 to 10000 | 100 to 1000 | 0.01 to 0.1 |
| CCn1c(-c2cccnc2[C@H](C)OC)c2c3cc(ccc31)-c1csc(n1)C[C@H](NC(=O)C[C@H](C)OC1CN(C(=O)C#CC(C)(C)N(C)C)C1)C(=O)N1CCC[C@H](N1)C(=O)OCC(C)(C)C2 (atropisomer, axis not shown) [Example A637] | > 10000 |  | 1000 to 10000 |  |  | 1000 to 10000 |  | 10 to 100 | 1000 to 10000 | 1000 to 10000 | 0.01 to 0.1 |
| CO[C@@H](C)c1ncccc1-c1c2c3cc(ccc3n1CC(F)(F)F)N1CCO[C@@H](C[C@H](NC(=O)[C@H](C(C)C)N3CC[C@]4(CCN(C(=O)C#CC(C)(C)N(C)C)C4)C3=O)C(=O)N3CCC[C@H](N3)C(=O)OCC(C)(C)C2)C1 (atropisomer, axis not shown) [Example A642] | > 10000 |  | 1000 to 10000 |  |  | 1000 to 10000 |  | < 10 | 1000 to 10000 | 1000 to 10000 | < 0.01 |
| CCn1c(-c2cccnc2[C@H](C)OC)c2c3cc(ccc31)N1CCO[C@@H](C[C@H](NC(=O)[C@H](C(C)C)N(C)C(=O)C3(F)CCN(C(=O)C#CC(C)(C)N(C)C)CC3)C(=O)N3CCC[C@H](N3)C(=O)OCC(C)(C)C2)C1 (atropisomer, axis not shown) [Example A647, 1-(4-(dimethylamino)-4-methylpent-2-ynoyl)-N-((2S)-1-(((2^2S,6^3S,4S)-1^1-ethyl-1^2-(2-((S)-1-methoxyethyl)pyridin-3-yl)-10,10-dimethyl-5,7-dioxo-6^1,6^2,6^3,6^4,6^5,6^6-hexahydro-1^1H-8-oxa-2(4,2)-morpholina-1(5,3)-indola-6(1,3)-pyridazinacycloundecaphane-4-yl)amino)-3-methyl-1-oxobutan-2-yl)-4-fluoro-N-methylpiperidine-4-carboxamide] | 1000 to 10000 |  | 1000 to 10000 |  |  | 100 to 1000 |  | < 10 | 1000 to 10000 | 1000 to 10000 | < 0.01 |
